Experimental data from PMC3849221 (NeuroImage, 2013).
Like-named read-outs stand apart in the source and are kept apart here.

Key:
CB1 receptor [1] = molecular target: T1, CB1 receptor (Homo sapiens, UniProt P21554); type: binding
CB1 receptor [2] = molecular target: T1, CB1 receptor; details: cited from earlier work; for VT / Intersubject Variability of VT (SD/mean): human; for VT: mean±SD
CB1 receptor [3] = details: ref Terry et al., 2010, cited from earlier work; for Specific binding (%) / VT (striatum) Baseline / VT (striatum) Preblocked: monkey striatum
Lipophilicity LogD7.4 = type: physicochemical; details: n-octanol / 0.15 M sodium phosphate buffer pH 7.4, room temperature, 6 measurements
[4] = Cingulate, n=10, 90min, ref Wong et al, 2010
[5] = Globus pallidus, n=10, 90min, ref Wong et al, 2010
[6] = Putamen, n=10, 90min, ref Wong et al, 2010
[7] = Frontal, n=17, 150min, ref Terry et al, 2009
[8] = Putamen, n=17, 150min, ref Terry et al, 2009
[9] = Thalamus, n=17, 150min, ref Terry et al, 2009
[10] = human parietal cortex, displacement of [3H]MePPEP, n=6
[11] = Frontal, n=9, 120min, ref Terry et al., 2010
[12] = Putamen, n=9, 120min, ref Terry et al., 2010
[13] = Thalamus, n=9, 120min, ref Terry et al., 2010

T1 sequence (P21554 whole entry): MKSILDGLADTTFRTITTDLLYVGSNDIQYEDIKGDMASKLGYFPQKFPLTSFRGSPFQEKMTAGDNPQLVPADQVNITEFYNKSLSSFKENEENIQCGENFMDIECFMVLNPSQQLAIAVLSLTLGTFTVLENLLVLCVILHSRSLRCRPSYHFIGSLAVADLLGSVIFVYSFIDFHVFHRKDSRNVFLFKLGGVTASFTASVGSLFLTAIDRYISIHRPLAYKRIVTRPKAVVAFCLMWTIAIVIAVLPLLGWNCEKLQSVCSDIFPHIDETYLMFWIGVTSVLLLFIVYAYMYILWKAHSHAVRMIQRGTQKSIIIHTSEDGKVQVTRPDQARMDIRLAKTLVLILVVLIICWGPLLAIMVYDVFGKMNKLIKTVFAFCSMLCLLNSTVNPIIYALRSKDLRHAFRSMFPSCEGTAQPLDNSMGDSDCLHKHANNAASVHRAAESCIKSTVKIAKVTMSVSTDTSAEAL

For `COc1ccc(-c2c(C#N)c(C(=O)NN3CCCCC3)nn2-c2ccc(Cl)cc2Cl)cc1` [^11C-OMAR], the Ki (CB1 receptor [1]) is listed as 2.05 nM, the VT (CB1 receptor [2]; [4]) is listed as 1.23±0.16 mL · cm^−3 and the “Intersubject Variability of VT (SD/mean)” value (CB1 receptor [2]; [4]) is listed as 13%. For the same compound, the VT (CB1 receptor [2]; [5]) was 1.47±0.25 mL · cm^−3, the “Intersubject Variability of VT (SD/mean)” value (CB1 receptor [2]; [5]) was 17% and the VT (CB1 receptor [2]; [6]) was 1.32±0.20 mL · cm^−3. For the same compound, the “Intersubject Variability of VT (SD/mean)” value (CB1 receptor [2]; [6]) was 15%.

For `C[C@@H](N[C@@H]1C[C@H](c2cccc(O[11CH3])c2)N(c2ccc(C(F)(F)F)cc2)C1=O)c1ccccc1` [^11C-MePPEP], the “Specific binding (%)” value (CB1 receptor [3]) is listed as 88%, the “VT (striatum) Baseline” value (CB1 receptor [3]) is listed as 24.3 mL·cm^−3 and the “VT (striatum) Preblocked” value (CB1 receptor [3]) is listed as 2.9 mL·cm^−3. The LogD7.4 (Lipophilicity LogD7.4) was 4.77±0.27, the VT (CB1 receptor [2]; [7]) was 22.4±12.8 mL · cm^−3 and the “Intersubject Variability of VT (SD/mean)” value (CB1 receptor [2]; [7]) was 57%. The VT (CB1 receptor [2]; [8]) was 29.1±17.4 mL · cm^−3, the “Intersubject Variability of VT (SD/mean)” value (CB1 receptor [2]; [8]) was 60% and the VT (CB1 receptor [2]; [9]) was 11.2±5.0 mL · cm^−3. The “Intersubject Variability of VT (SD/mean)” value (CB1 receptor [2]; [9]) was 44%.

Work on `N#Cc1ccc(S(=O)(=O)NC(=N)N2CC(c3ccccc3)C(c3ccc(Cl)cc3)=N2)cc1` (stereo not drawn) [^11C-SD5024, [cyano-^11C](−)-3-(4-chlorophenyl)-N-[(4-cyanophenyl)sulfonyl]-4-phenyl-4,5-dihydro-1H-pyrazole-1-carboxamidine] yielded a Ki (CB1 receptor [1]; [10]) of 0.47 nM.

In the case of `COc1ccc(-c2c(C#N)c(C(=O)NN3CCCCC3)nn2-c2ccc(Cl)cc2Cl)cc1` [OMAR], the Ki (CB1 receptor [1]; [10]) is reported as 2.05 nM.

For `Cc1ccc(OC(C)(C)C(=O)N[C@@H](C)[C@@H](Cc2ccc(OCCF)cc2)c2cccc(C#N)c2)nc1` [^18F-MK-9470], the “Intersubject Variability of VT (SD/mean)” value (CB1 receptor [2]; Frontal, n=12, 700, 360, 150min, ref Sanabria-Bohórquez et al., 2010) is listed as 58%, the “Intersubject Variability of VT (SD/mean)” value (CB1 receptor [2]; Putamen, n=12, 700, 360, 150min, ref Sanabria-Bohórquez et al., 2010) is listed as 53% and the “Intersubject Variability of VT (SD/mean)” value (CB1 receptor [2]; Thalamus, n=12, 700, 360, 150min, ref Sanabria-Bohórquez et al., 2010) is listed as 60%.

For `[2H]C([18F])Oc1cccc([C@H]2C[C@@H](N[C@H](C)c3ccccc3)C(=O)N2c2ccc(C(F)(F)F)cc2)c1` (stereo partly shown) [^18F-FMPEP-d2], the “percentage of specific binding in monkey brain” value (CB1 receptor [3]; monkey brain) is given as 85%, the “Specific binding (%)” value (CB1 receptor [3]) is given as 85% and the “VT (striatum) Baseline” value (CB1 receptor [3]) is given as 35.4 mL·cm^−3. For the same compound, the “VT (striatum) Preblocked” value (CB1 receptor [3]) was 5.4 mL·cm^−3, the LogD7.4 (Lipophilicity LogD7.4) was 4.24±0.08 and the VT (CB1 receptor [2]; [11]) was 22.7±6.4 mL · cm^−3. For the same compound, the “Intersubject Variability of VT (SD/mean)” value (CB1 receptor [2]; [11]) was 28%, the VT (CB1 receptor [2]; [12]) was 24.3±7.2 mL · cm^−3 and the “Intersubject Variability of VT (SD/mean)” value (CB1 receptor [2]; [12]) was 29%. For the same compound, the VT (CB1 receptor [2]; [13]) was 9.6±2.5 mL · cm^−3, the “Intersubject Variability of VT (SD/mean)” value (CB1 receptor [2]; [13]) was 26% and the peak brain uptake (CB1 receptor [2]; species not given, ref Terry et al., 2010) was ~ 6 SUV.
